Patent US8524899B2, “Alternative heterocycles for DNA recognition” (California Institute of Technology, priority 2003, dated 2013)
One block for each compound: values may come before it.

How the values were obtained:
Format in all cases: binding
[1] = system: 32P-3′-labeled EcoRI/PvuII restriction fragment of plasmid pDR1 (sites 5′-TGTCTA-3′, 5′-TGTTTA-3′, 5′-TGTATA-3′, 5′-TGTGTA-3′); assay: Quantitative DNase I footprint titration on pDR1 restriction fragment
Description: FIG. 4 illustrates the equilibrium association constants Ka[M^−1] for Polyamide Oligomers A-C, N, Q, and P. The reported association constants are the average values obtained from three DNase I footprint titration experiments, with the standard deviation for each data set indicated in the experiments. Assays were carried out at 22° C. at pH 7.0 in the presence of 10 mM Tris-HCl, 10 mM KCl, 10 mM MgCl2, and 5 mM CaCl2 with an equilibration time of 12 h. Specificities are give in brackets under the Ka values and calculated as Ka (match)/Ka (mismatch).
To examine whether an imidazo[4,5-b]pyridine unit Ip can replace a five-membered imidazole ring Im within an eight-ring hairpin polyamide regarding DNA binding affinity and specificity, polyamide oligomer A and its related all five-membered ring hairpin oligomer N were evaluated by DNase I footprint titrations under identical conditions. Quantitative DNase I footprint titration experiments (10 mM Tris-HCl, 10 mM KCl, 10 mM MgCl2, 5 mM CaCl2, pH 7.0, 22° C., equilibration time: 12 h) were performed on a ^32P-3′-labeled EcoRI/PvuII restriction fragment of plasmid pDR1 0 (FIG. 2). This DNA fragment contains four 6-base pair binding sites which differ at one position, 5′-TGTCTA-3′,5′-TGTTTA-3′,5′-TGTATA-3′, and 5′-TGTGTA-3′. The latter one was regarded as the possible match site having a G•C base pair under the Ip/Py or Im/Py pair, respectively.
Construction of plasmid DNA. The plasmid pDR1 was constructed by hybridization of the two oligonucleotides 5′-GATCAGGCTGTC-[…]-GCTGCTGTTTATGGACG-GCTGCTGTATATGGACGG-CTGGGCGA-3′ (SEQ ID NO:1) and 5′-AGCTTCGC-[…]-[…]-3′ (SEQ ID NO:2) followed by ligation into the BamHI/HinDIII restriction fragment of pUC19 using T4 DNA ligase. The resultant plasmid was then used to transform E. coli XL-1 Blue Supercompetent cells. Ampicillin-resistant white colonies were selected from 25 mL Luria-Bertani agar plates containing […] ampicillin, treated with XGAL and IPTG solutions and grown overnight at 37° C. Cells were harvested after overnight growth at 37° C. Large-scale plasmid purification was performed with Qiagen, purification kits. The presence of the desired insert was determined by dideoxy sequencing. DNA concentrations were determined at 260 nm using the relationship 1 OD unit) 50 μg/mL duplex DNA.
Preparation of 3′-End-Labeled DNA Restriction Fragments. The plasmid pDR1 was linearized with EcoRI and PVuII and treated with the Klenow fragment of DNA […], [R-^32P]-dATP, and [R-^32P]-TTP for 3′-end labeling. The labeled 3′-fragment was purified on a 7% nondenaturing polyacrylamide gel (5% cross-linkage) and the desired 284 base pair band isolated after visualization by autoradiography. The DNA was precipitated with 2-propanol, the pellet washed, lyophilized, and resuspended in RNase-free H2O. Chemical sequencing reactions were performed according to published protocols. (Troschütz, R.; Lückel, A. Arch. Pharm., 325, 617-619, 1992.)
DNase I Footprinting. All reactions were carried out in a volume of 400 μL according to published procedures. Quantitation by storage phosphor autoradiography and determination of equilibrium association constants were as previously described. (Trauger, J. W.; Dervan, P. B. Methods Enzymol., 340, 450-466, 2001.)

[2] = system: EcoRI/PvuII restriction fragment of plasmid pPWF2 (5′-TGRACA-3′); assay: Quantitative DNase I footprint titration, R•S position, plasmid pPWF2
Description: (§1) FIG. 9 illustrates the equilibrium association constants Ka[M^−1] and specificities for polyamide oligomers D-F, R, S, and V on plasmids pPWF2 and pCAB1 (R•S position).
(§2) When replacing PyPy, PyIm, and PyHp dimers with BiPy (as in oligomer D), BiIm (as in oligomer E), and BiHp constructs (as in oligomer F), respectively, the question arises whether a) the benzimidazole ring is capable of cooperating with the imidazole ring on the opposite strand of the hairpin polyamide to specifically recognize a C•G base pair according to the binding model and the general pairing rules, and b) whether the steric and electronic peculiarities of the benzimidazole ring disturb the binding ability of the adjacent heterocycle. In order to address this question for the given polyamide design, the recognition behavior of the benzimidazole-containing polyamides was probed in two of the six base pair positions R•S and X•Y of the recognition sequence (5′-TGRACA-3′ and 5′-TGGXCA-3′ for oligomers D and F; 5′-TGRCAA-3′ and 5′-TGGXAA-3′ for oligomer E; FIG. 6) and compared with the DNA-binding ability of the related all five-membered oligomers R, S, and V at the same recognition sequences.
(§3) Evaluation of the DNA recognition properties of the new ligands oligomers D, E, and F at the imidazole/benzimidazole position (referred to as R•S position) should reveal the sequence preference of the benzimidazole ring. The binding properties at the neighboring ring position (referred to as X•Y position) were expected to disclose whether the recognition capabilities of the adjacent internal five-membered ring are disturbed by the benzimidazole moiety. To examine the consequences of the ring replacement for DNA binding in terms of affinity and specificity, the benzimidazole-containing hairpin polyamides oligomers D, E, and F were evaluated by quantitative DNase I footprint titrations and the results compared to those from related oligomers R, S, and V, which were investigated under identical conditions. Quantitative DNase I footprint titration experiments (10 mm Tris-HCl, 10 mm KCl, 10 mm MgCl2, 5 mm CaCl2, pH 7.0, 22° C., equilibration time: 12 h) were performed on ^32P-3′-labeled EcoRI/PvuII restriction fragments of plasmids pPWF2 and pCAB1 (to probe the R•S position, FIG. 7); and pAU2 and pCAB2 (to probe the X•Y position, FIG. 8). Equilibrium association constants (Ka) for the polyamide oligomers at the binding sites of interest were determined as described above in Example 3.

[3] = system: EcoRI/PvuII restriction fragment of plasmid pAU2 (5′-TGGXCA-3′); assay: Quantitative DNase I footprint titration, X•Y position, plasmid pAU2; conditions: match and mismatch sites
Description: FIG. 10 illustrates the equilibrium association constants Ka[M^−1] and specificities for polyamide oligomers D-F, R, S, and V on plasmids pAU2 and pCAB2 (X•Y position). […]
as §3, with “The binding properties at the neighboring ring position (referred to as X•Y position) were expected to disclose whether the recognition capabilities of the adjacent internal five-membered ring are disturbed by the benzimidazole moiety.” left out

[4] = system: EcoRI/PvuII restriction fragment of plasmid pCAB1 (5′-TGRCAA-3′); assay: Quantitative DNase I footprint titration, R•S position, plasmid pCAB1
Description: as §1, §2, §3

[5] = system: EcoRI/PvuII restriction fragment of plasmid pCAB2 (5′-TGGXAA-3′); assay: Quantitative DNase I footprint titration, X•Y position, plasmid pCAB2
Description: FIG. 10 illustrates the equilibrium association constants Ka[M^−1] and specificities for polyamide oligomers D-F, R, S, and V on plasmids pAU2 and pCAB2 (X•Y position).
When replacing PyPy, PyIm, and PyHp dimers with BiPy (as in oligomer D), BiIm (as in oligomer E), and BiHp constructs (as in oligomer F), respectively, the question arises whether a) the benzimidazole ring is capable of cooperating with the imidazole ring on the opposite strand of the hairpin polyamide to specifically recognize a C•G base pair according to the binding model and the general pairing rules, and b) whether the steric and electronic peculiarities of the benzimidazole ring disturb the binding ability of the adjacent heterocycle. […]
as §3, with “The binding properties at the neighboring ring position (referred to as X•Y position) were expected to disclose whether the recognition capabilities of the adjacent internal five-membered ring are disturbed by the benzimidazole moiety.” left out

[6] = system: 5′-TGGXCA-3′ (X=A, T, G, C); assay: DNase I footprint titration, single Hz/Py, Py/Hz, Hz/Bi, Bi/Hz pair position; conditions: for preference for T•A over A•T: Hz/Py (G), Hz/Bi (I) pair; for preference for A•T over T•A: Py/Hz (J), Bi/Hz (L) pair
Description: FIG. 15 is a table showing the association equilibrium constant Ka[M^−1] for polyamide oligomers G and J. The reported association constants are the average values obtained from three DNase I footprint titration experiments, with the standard deviation given in parenthesis. Assays were carried out at 22° C. at pH 7.0 in the presence of 10 mM Tris-HCl, 10 mM KCl, 10 mM MgCl2, and 5 mM CaCl2 at pH 7.0.
FIG. 19 is a a table showing the association equilibrium constant Ka[M^−1] for polyamide oligomers I and L. The reported association constants are the average values obtained from three DNase I footprint titration experiments, with the standard deviation given in parenthesis. Assays were carried out at 22° C. at pH 7.0 in the presence of 10 mM Tris-HCl, 10 mM KCl, 10 mM MgCl2, and 5 mM CaCl2 at pH 7.0.
For polyamides Im-Im-Hz-Py-γ-Im-Py-Py-Py-β-Dp (oligomer G) and Im-Im-Py-Py-γ-Im-Hz-Py-Py-β-Dp (oligomer J), the DNA-sequence specificity at a single ring-pairing position (bolded in the sequences listed above) was determined by varying a single DNA base pair within the parent-sequence context, 5′-TGGXCA-3′, to all four Watson-Crick base pairs (X=A, T, G, C) and comparing the relative affinities of the resulting complexes (FIG. 14). The variable base-pair position was installed opposite the novel Hz/Py and Py/Hz pairs, designed to target T•A and A•T respectively. Equilibrium association constants (Ka) for polyamide oligomers containing Py/Py, Hp/Py and Py/Hp pairs have been reported and are included for comparison with values presented here (FIG. 15).
The variable base-pair position was installed opposite the novel Hz/Bi and Bi/Hz pairs, designed to target T•A and A•T respectively.
Footprinting Experiments.—Plasmids pDHN1 and pDEH10 were constructed and 5′-radiolabeled as previously described. (Nguyen, D. H. et al., Bioorg. Med. Chem., 9: 7-17, 2001; Melander, C. et al., Chem. Eur. J., 24: 4487-4497, 2000.) DNase I footprint titrations were performed according to standard protocols. (Trauger, J. W. et al., Methods Enzymol., 340: 450-466, 2001.)

specificity of match site versus A•T and T•A sites ([1]; G•C match vs A•T and T•A sites): similar | preference for match site 5′-TGTGTA-3′ versus the C•G site ([1]; G•C match vs C•G site): slight decrease | higher affinity than related all five-membered ring oligomer ([1]; site 5′-TGTGTA-3′): 5 fold | equilibrium association constant Ka ([1]; site 5′-TGTGTA-3′ (G•C), pH 7.0, 22° C., equilibration 12 h): 1.2e+10 M⁻¹
SMILES: CNC(=O)c1cc(NC(=O)c2cc(NC(=O)c3cc(NC(=O)c4cc(NC(=O)[C@H](N)CCNC(=O)c5cc(NC(=O)c6ccc7nc(-c8cc(NC(=O)c9nccn9C)cn8C)[nH]c7n6)cn5C)cn4C)cn3C)cn2C)cn1C [A]

binding site preference, affinity and specificity compared with related all five-membered ring oligomer ([1]; B vs Q, C vs P): same binding site preference
SMILES: CNC(=O)c1cc(NC(=O)c2cc(NC(=O)c3cc(NC(=O)c4cc(NC(=O)[C@H](N)CCNC(=O)c5cc(NC(=O)c6ccc7nc(-c8cc(NC(=O)c9nccn9C)cn8C)[nH]c7c6)cn5C)cn4C)cn3C)cn2C)cn1C [C]

match site Ka, R•S position ([2]; 5′-TGRACA-3′ match site, pH 7.0, 22° C., 12 h): 4.9e+10 M⁻¹ | match site affinity compared with related all five-membered oligomer, R•S position ([2]; D vs R, F vs V): comparable | single base pair mismatch specificities compared with related oligomer, R•S position ([2]; D vs R, F vs V): lower by roughly one order of magnitude | binding affinities and specificities compared with related oligomers R, V, X•Y position [3]: same order of magnitude
SMILES: CNC(=O)c1cc(NC(=O)c2ccc3nc(-c4cc(NC(=O)c5nc(NC(=O)[C@H](N)CCNC(=O)c6cc(NC(=O)c7cc(NC(=O)c8nc(NC(=O)c9nccn9C)cn8C)cn7C)cn6C)cn5C)cn4C)[nH]c3c2)cn1C [D]

match site Ka, R•S position ([4]; 5′-TGRCAA-3′ match site, pH 7.0, 22° C., 12 h): 3.1e+10 M⁻¹ | match site affinity compared with related all five-membered oligomer, R•S position ([4]; E vs S): six to seven-fold higher | match site/mismatch site discrimination compared with related oligomer, R•S position ([4]; R=A): comparable | match site/mismatch site discrimination compared with related oligomer, R•S position ([4]; R=T or C): at least ten-fold lower | match site Ka, X•Y position ([5]; 5′-TGGXAA-3′ match site, pH 7.0, 22° C., 12 h): 1.9e+10 M⁻¹ | match site affinity compared with related oligomer S, X•Y position ([5]; E vs S): six-fold higher | single base pair mismatch specificities compared with related oligomer S, X•Y position ([5]; E vs S): mildly diminished
SMILES: CNC(=O)c1cc(NC(=O)c2ccc3nc(-c4nc(NC(=O)c5cc(NC(=O)[C@H](N)CCNC(=O)c6cc(NC(=O)c7cc(NC(=O)c8nc(NC(=O)c9nccn9C)cn8C)cn7C)cn6C)cn5C)cn4C)[nH]c3c2)cn1C [E]

selectivity for A,T over G,C [6]: more than 50 fold | preference for T•A over A•T [6]: 10 fold
SMILES: CN(C)CCCNC(=O)CCNC(=O)c1cc(NC(=O)c2cc(NC(=O)c3cc(NC(=O)c4nc(NC(=O)CCCNC(=O)c5cc(NC(=O)c6ccc7nc(-c8nc(NC(=O)c9nccn9C)cn8C)[nH]c7c6O)cn5C)cn4C)cn3C)cn2C)cn1C [G]

selectivity for A,T over G,C [6]: 13 fold | preference for T•A over A•T [6]: 2.5 fold
SMILES: CN(C)CCCNC(=O)CCNC(=O)c1cc(NC(=O)c2cc(NC(=O)c3ccc4nc(-c5nc(NC(=O)CCCNC(=O)c6cc(NC(=O)c7ccc8nc(-c9nc(NC(=O)c%10nccn%10C)cn9C)[nH]c8c7O)cn6C)cn5C)[nH]c4c3)cn2C)cn1C [I]

selectivity for A,T over G,C [6]: more than 30 fold | preference for A•T over T•A [6]: more than 4 fold
SMILES: CN(C)CCCNC(=O)CCNC(=O)c1cc(NC(=O)c2cc(NC(=O)c3ccc4nc(-c5nc(NC(=O)CCCNC(=O)c6cc(NC(=O)c7cc(NC(=O)c8nc(NC(=O)c9nccn9C)cn8C)cn7C)cn6C)cn5C)[nH]c4c3O)cn2C)cn1C [J]

selectivity for A,T over G,C [6]: 4.5 fold | Ka (affinity) ([6]; 5′-TGGXCA-3′, 22° C., pH 7.0): high affinity | preference for A•T over T•A [6]: 2.5 fold
SMILES: CN(C)CCCNC(=O)CCNC(=O)c1cc(NC(=O)c2cc(NC(=O)c3ccc4nc(-c5nc(NC(=O)CCCNC(=O)c6cc(NC(=O)c7ccc8nc(-c9nc(NC(=O)c%10nccn%10C)cn9C)[nH]c8c7)cn6C)cn5C)[nH]c4c3O)cn2C)cn1C [L]
